The values that follow come from patent US5484717A, “Antibiotic 31F508α1, 31F508α2, 31F508β1, 31F508β2” (American Cyanamid Company, priority 1995, dated 1996).

Test [1] relates to Escherichia coli#311. The test is described as follows: In vivo antibacterial activity in intraperitoneally infected mice. Also on record: species or system female CD-1 mice. To be noted: one half hour after infection. Here is the method:
The in vivo antibacterial activity of antibiotic 31F508α2 is established by infecting female CD-1 mice from Charles River Laboratories,weighing 20+-- 2 g each, intraperitoneally of sufficient bacterial cells suspended in either broth or 5% hog gastric mucin to kill non-treated controls within 24-48 hours. Two-fold serially diluted doses of the antibacterial agent contained in phosphate buffered saline (PBS, pH 7.4, 0.01M) are administered intravenously (0.2 ml) or contained in 0.2% aqueous agar, subcutaneously (0.5 ml) or orally (0.5 ml) one half hour after infection. In each test, five mice are treated per dose level.

For test [2], the system named is Staphylococcus aureus (ID-4379). The test is described as follows: In vitro antibacterial activity, agar dilution MIC. Format: cell-based. To be noted: 18 h, read-out: Minimum Inhibitory Concentration. How it is done:
(§1) The in vitro antibacterial activity of 31F508α1 and α2 is determined against a spectrum of gram-positive and gram-negative bacteria by a standard agar dilution method. Mueller-Hinton agar with and without 5% sheep blood and two-fold decreasing concentrations of either 31F508α1 or α2 are poured into petri dishes. The agar surfaces are inoculated with 1 to 5×10^4 colony forming units of bacteria by means of the Steers replicating device. The lowest concentration of antibiotic that inhibits growth of a bacterial strain after 18 hours incubation is recorded as the minimal inhibitory concentration for that strain. The results are given in Table V with sheeps blood added to the agar.

Test [3] deals with E. faecium (ID-4133). Put plainly: In vitro antibacterial activity, agar dilution MIC. Format: cell-based. The settings on record: 18 hours; for MIC: Enterococcus faecium, without sheep blood, read-out: Minimum Inhibitory Concentration. Here is the method: as §1
(In general: Agar dilution tests growth on a series of plates holding different concentrations.)

Test [4] has as its system E. faecium (ID-3301). Put plainly: In vitro antibacterial activity, agar dilution MIC. To be noted: Enterococcus faecium, 18 h, read-out: Minimum Inhibitory Concentration. It is filed as cell-based. Here is the method:
as §1

Test [5] deals with Staphylococcus aureus (ID-2371). Put plainly: In vitro antibacterial activity, agar dilution MIC. It is filed as cell-based. To be noted: 18 h, read-out: Minimum Inhibitory Concentration. How it is done:
as §1

Test [6] deals with Staphylococcus haemolyticus (ID-4061). Put plainly: In vitro antibacterial activity, agar dilution MIC. Format: cell-based. To be noted: 18 h, read-out: Minimum Inhibitory Concentration. How it is done:
as §1

Test [7] relates to Staphylococcus aureus (ID-3105). Put plainly: In vitro antibacterial activity, agar dilution MIC. It is filed as cell-based. The settings on record: 18 h, read-out: Minimum Inhibitory Concentration. Here is the method:
as §1

The subject of test [8] is S. agalactiae (ID-4079). Put plainly: In vitro antibacterial activity, agar dilution MIC. It is filed as cell-based. To be noted: Streptococcus agalactiae. How it is done:
as §1

The subject of test [9] is E. coli (J2175). Put plainly: In vitro antibacterial activity, agar dilution MIC. It is filed as cell-based. To be noted: Escherichia coli, 18 h, read-out: Minimum Inhibitory Concentration. How it is done: as §1
The test system of test [10] is CNS (ID-3276). Put plainly: In vitro antibacterial activity, agar dilution MIC. Format: cell-based. The settings on record: 18 h, read-out: Minimum Inhibitory Concentration, CNS (ID-3276), without sheep blood. Here is the method:
as §1

The mark [11] stands for this setting: 18 h, read-out: Minimum Inhibitory Concentration, S. acralactiae (ID-4079), without sheep blood.

Molecules are shown by their SMILES. ≈ marks a conversion by molar mass, not a printed value. Like-named read-outs stand apart in the source and are kept apart here.

As for `COc1c(C)c(O)c2c(c1O)C1COC3C4CC5C(C(C2N2CCOC52)N13)N4C` (stereo not drawn) [31F508α2], the “Survival Ratios” value in [1] (SIV (intravenous), 0.25 Mg/Kg) is 0/5; in test [1] (SIV (intravenous), 0.5 Mg/Kg), 0/5; in [1] (SIV (intravenous), 1 Mg/Kg), 0/5; in [1] (SIV (intravenous), 2 Mg/Kg), 0/5; in [1] (SIV (intravenous), 4 Mg/Kg) it was 0/5; in test [1] (SOD (oral), 0.25 Mg/Kg) it was 0/5. Also, the “Survival Ratios” value is on record as 0/5 in [1] (SOD (oral), 0.5 Mg/Kg); 0/5 in test [1] (SOD (oral), 1 Mg/Kg); 0/5 in [1] (SOD (oral), 2 Mg/Kg); 0/5 in test [1] (SOD (oral), 4 Mg/Kg); 0/5 in [1] (SOD (oral), 8 Mg/Kg); 0/5 in test [1] (SSC (subcutaneous), 0.25 Mg/Kg). For the same molecule, the “Survival Ratios” value is recorded as 0/5 in test [1] (SSC (subcutaneous), 0.5 Mg/Kg); 0/5 in test [1] (SSC (subcutaneous), 1 Mg/Kg); 0/5 in [1] (SSC (subcutaneous), 2 Mg/Kg); 0/5 in test [1] (SSC (subcutaneous), 4 Mg/Kg); 0/5 in test [1] (SSC (subcutaneous), 8 Mg/Kg). For the same molecule, the MIC in [2] (without sheep blood) came to 0.004 µg/mL (≈ 0.00996 µM); in test [3] it was 0.002 µg/mL (≈ 0.00498 µM); in test [4] (without sheep blood) it was 0.12 µg/mL (≈ 0.299 µM); in test [5] (without sheep blood), 0.004 µg/mL (≈ 0.00996 µM); in test [6] (without sheep blood), 0.002 µg/mL (≈ 0.00498 µM); in test [7] (without sheep blood) it was 0.004 µg/mL (≈ 0.00996 µM). Moreover, the MIC in test [8] (setting [11]) stood at 0.004 µg/mL (≈ 0.00996 µM); in test [9] (without sheep blood) it was 1 µg/mL (≈ 2.49 µM).
For `COc1c(C)c(O)c2c(c1O)C1COC3C4CC5C(N4)C(C2N2CCOC52)N13` (stereo not drawn) [31F508α1], the MIC in test [2] (with 5% sheep blood) was 0.12 µg/mL (≈ 0.31 µM); in test [2] (without sheep blood), 0.03 µg/mL (≈ 0.0774 µM); in test [3], 0.002 µg/mL (≈ 0.00516 µM); in test [10], 0.008 µg/mL (≈ 0.0206 µM); in [4] (with 5% sheep blood), 0.12 µg/mL (≈ 0.31 µM); in test [4] (without sheep blood), 0.06 µg/mL (≈ 0.155 µM). For the same molecule, the MIC in [5] (with 5% sheep blood) was found to be 0.06 µg/mL (≈ 0.155 µM); in test [5] (without sheep blood), 0.03 µg/mL (≈ 0.0774 µM); in [6] (with 5% sheep blood) it was 0.015 µg/mL (≈ 0.0387 µM); in test [6] (without sheep blood), 0.008 µg/mL (≈ 0.0206 µM); in [7] (with 5% sheep blood), 0.06 µg/mL (≈ 0.155 µM); in [7] (without sheep blood) it was 0.03 µg/mL (≈ 0.0774 µM). For the same molecule, the MIC in test [8] (setting [11]) turned out to be 0.004 µg/mL (≈ 0.0103 µM); in test [8] (S. agalactiae (ID-4079), with 5% sheep blood, 18 hours, read-out: Minimum Inhibitory Concentration), 0.015 µg/mL (≈ 0.0387 µM); in [9] (with 5% sheep blood) it was 2 µg/mL (≈ 5.16 µM); in test [9] (without sheep blood), 1 µg/mL (≈ 2.58 µM). In test [3] (with 5% sheep blood), the “Minimum Inhibitory Concentration” value came to 0.002 µg/mL.
